Experimental data: patent US20190192456A1, “USE OF CELIPROLOL FOR TREATING VASCULAR EHLERS-DANLOS SYNDROME IN WOMEN DURING PREGNANCY AND PERIPARTUM PERIOD” (Assistance Publique-Hôpitaux de Paris (AP-HP), priority 2017, published 2019)

Assays:
Assay type in all cases: in vivo, human
[1] = tested on: parturients with vascular Ehlers-Danlos syndrome; assay: Maternal mortality analysis of vascular EDS families; details: one patient, 7 months after delivery; programmed early c-section, unremarkable arterial monitoring after the postpartum period
From the text: For the mortality analysis, the medical charts and pedigrees of all patients known to the French referral center for rare vascular diseases (AP-HP, Centre de Référence des Maladies Vasculaires Rares, Hôpital Européen Georges Pompidou, Paris, France) for having a molecularly confirmed vascular EDS, were screened for past or ongoing pregnancies, and for maternal deaths in probands and pedigrees. All families known to our center with at least one proband diagnosed with vascular EDS (nationwide patient cohort) were considered for participation to the maternal mortality analysis after exclusion of ascendants of patients with neomutations (see below). Patients with a personal history of pregnancy were considered for participation to the obstetrical interview study. […]
Maternal deaths were determined according to definitions of the 10th revision of the International Classification of Diseases of the World Health Organization (Geneva 2004). Pregnancy-related deaths defined as the death of a woman while pregnant or within 42 days of termination of pregnancy, irrespective of the cause of death, were determined for probands, first and second degree ascendants. […] A global maternal mortality ratio was then determined, which encompassed pregnancy-related and late maternal mortality ratios. […]

[2] = tested on: newborn of mothers who received celiprolol during pregnancy and delivery; assay: Newborn well-being after indirect exposure to celiprolol during pregnancy; details: n=7 newborn of mothers who received celiprolol during pregnancy and delivery
Description: For each newborn, weight and height at birth were recorded and presented as a function of term of pregnancy, as previously described. Health status at birth was assessed by the APGAR score noted in the children's health record, and any significant event that occurred at birth was collected (respiratory failure, pneumothorax, significant verifiable birth defects).
Reference charts for birth weight and size were constructed according to Battaglia et al. with normal values based on approximately 57 000 newborn of the Paris (France) area as reported by Salomon et al.[15].

[3] = tested on: parturients with molecularly confirmed vascular Ehlers-Danlos syndrome; assay: Maternal morbidity study (obstetrical interview study) of vascular EDS parturients; prescription of celiprolol during pregnancy, delivery and post-partum period
Description: For each pregnancy, date and time of delivery were recorded, as well as term of pregnancy at birth, expressed in weeks of amenorrhea (WA). In case of preterm labour or premature rupture of membranes (PROM), gestational age of occurrence was noted. Ongoing treatments during pregnancy were recorded, especially betablockers (celiprolol). In case of anaesthesia, type of ([…], general) and complications were collected (haematoma, leakage of spinal fluid, pneumothorax for general anaesthesia). Delivery was described as follows: type (vaginal, c-section), duration of labour for vaginal delivery and the use of forceps or episiotomy. Vascular complications were defined by the occurrence of arterial dissections and ruptures during pregnancy, delivery and during the post-partum period defined as 42 days after delivery. Haemorrhagic complications were defined by, either significant bleeding when reported as such by patients and/or medical records, either by bleeding requiring blood transfusion or post-partum haemorrhage. Bleeding events >1000 ml with hemodynamic collapse are reported as haemorrhagic shock. Perineal damage was defined by the occurrence of a perineal tear related or not with episiotomy. Perineal injury was graded according to Sultan et al., from grade I (limited defect of perineal skin), to grade IV (injury of the perineum involving the anal sphincter complex and epithelium) perineal tears.
After the first interview, all relevant obstetrical data, especially term of pregnancies and obstetrical complications (preterm labour, PROM, uterine rupture, haemorrhage) were independently checked for accuracy of diagnosis and staging by a senior obstetrician during a second interview, and hospital records of deliveries were checked, when available.
Programmed Early C-Section and Prescription of Celiprolol
In n=12 (20%) pregnancies of this cohort, diagnosis of maternal vascular EDS (n=11, 28%) was suspected (n=2) or genetically confirmed (n=9) at the time of delivery, with consequent obstetrical management (prescription of celiprolol 200 mg BID in n=7 patients covering 7/12 pregnancies; preterm c-section in n=11/12 deliveries, of which 9 were scheduled).

[4] = patients treated with celiprolol 200 mg BID, n=7

## CCN(CC)C(=O)Nc1ccc(OCC(O)CNC(C)(C)C)c(C(C)=O)c1 (centres unmarked) [celiprolol, N′-(3-Acetyl-4-(3-((1,1-dimethylethyl)amino)-2-hydroxypropoxy)phenyl)-N,N-diethylurea]
[1]
  late maternal death by spontaneous intra-abdominal arterial rupture: occurred spontaneously despite a programmed early c-section, medication by celiprolol
[2]
  neonatal hypoglycaemia: none of the n=7 newborn
  other indications of adverse effects of indirect exposure to celiprolol during pregnancy: nor had other indications of adverse effects
[3]; celiprolol 200 mg BID in n=7 patients covering 7/12 pregnancies
  tolerability of celiprolol throughout pregnancy and the post-partum period: well tolerated
[3]; celiprolol 200 mg BID, n=7 patients, throughout pregnancy and the post-partum period
  dose adjustment in comparison to the dosage prescribed prior to the beginning of each pregnancy: no dose adjustment was necessary in any patient
[3]; [4]
  arterial event (dissection, rupture): No arterial event (dissection, rupture)
  maternal survival of pregnancies and post-partum periods: all patients treated with celiprolol survived
  uterine rupture: nor uterine rupture occurred in any patient
